Results: US7576222B2, “Alkynyl-containing tryptophan derivative inhibitors of TACE/matrix metalloproteinase” (priority 2004, dated 2009)

Target: T1, catalytic domain of the recombinant TACE protein (Homo sapiens, UniProt P78536)
T1 construct: The catalytic domain of the recombinant TACE protein was expressed and purified; made in house
Test: TACE FRET assay using TACE cat
Assay type: biochemical
Details: not given
Summary of the method: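 Enzyme (1 ug/ml) pretreated with inhibitor for 10 min at room temperature in 50 mM Tris-HCl pH 7.4, 25 mM NaCl, 4% glycerol, 0.005% Brij 35, then started with FRET peptide Abz-[sequence]-Dpa (2 mM stock). Initial rate taken from fluorescence slope; IC50 fitted with floated Hill slope and background.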

T1 sequence (P78536 223-474 limits assumed): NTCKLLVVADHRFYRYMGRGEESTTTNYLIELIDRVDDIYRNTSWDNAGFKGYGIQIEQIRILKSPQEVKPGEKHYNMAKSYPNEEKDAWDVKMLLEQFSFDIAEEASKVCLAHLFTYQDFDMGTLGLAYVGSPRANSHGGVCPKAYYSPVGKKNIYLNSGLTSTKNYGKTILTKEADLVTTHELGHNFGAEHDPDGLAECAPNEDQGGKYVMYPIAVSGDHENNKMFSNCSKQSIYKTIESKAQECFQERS

First: CC#CCOc1ccc(S(=O)(=O)N[C@@H](Cc2c(C)n(Cc3cccc(C#N)c3)c3ccc(OC)cc23)C(=O)O)cc1 [Example 204, N-{[4-(but-2-ynyloxy)phenyl]sulfonyl}-1-(3-cyanobenzyl)-5-methoxy-2-methyltryptophan]
Second: CC#CCOc1ccc(S(=O)(=O)N[C@@H](Cc2c(C)n(Cc3cccc(OC)c3)c3ccc(OC)cc23)C(=O)O)cc1 [Example 190, N-{[4-(but-2-ynyloxy)phenyl]sulfonyl}-5-methoxy-1-(3-methoxybenzyl)-2-methyltryptophan]
The IC50 of the first is 1.8-fold higher: 480 nM for the first, 260 nM for the second.

Compared with CC#CCOc1ccc(S(=O)(=O)N[C@@H](Cc2cn(Cc3ccccc3F)c3ccc(OC)cc23)C(=O)O)cc1 [Example 58, N-{[4-(but-2-ynyloxy)phenyl]sulfonyl}-1-(2-fluorobenzyl)-5-methoxytryptophan], CC#CCOc1ccc(S(=O)(=O)N[C@H](Cc2cn(Cc3ccc(C#N)cc3)c3ccccc23)C(=O)O)cc1 [Example 45, N-{[4-(but-2-ynyloxy)phenyl]sulfonyl}-1-(4-cyanobenzyl)-D-tryptophan] is 1.8-fold higher in IC50: 2240 nM for the first, 4040 nM for the second.

Compound CC#CCOc1ccc(S(=O)(=O)N[C@@H](Cc2c[nH]c3cc(C)ccc23)C(=O)O)cc1 [Example 8, N-{[4-(but-2-ynyloxy)phenyl]sulfonyl}-6-methyltryptophan] has an IC50 of 1570 nM.

Same assay, conditions: TACE FRET assay, catalytic domain of recombinant TACE; read-out: TACE IC50

Going from CC#CCOc1ccc(S(=O)(=O)N[C@H](Cc2cn(C(=O)OC(C)(C)C)c3ccccc23)C(=O)O)cc1 [Example 220, 1-(tert-butoxycarbonyl)-N-{[4-(but-2-ynyloxy)phenyl]sulfonyl}-D-tryptophan] to CC#CCOc1ccc(S(=O)(=O)N[C@H](Cc2cn(Cc3cccc(C(F)(F)F)c3)c3ccccc23)C(=O)O)cc1 [Example 40, N-{[4-(but-2-ynyloxy)phenyl]sulfonyl}-1-[3-(trifluoromethyl)benzyl]-D-tryptophan], the IC50 falls from 3670 nM to 2300 nM (1.6-fold).

Work on C=CCOc1ccc(Cn2cc(C[C@@H](NS(=O)(=O)c3ccc(OCC#CC)cc3)C(=O)O)c3ccccc32)cc1 [Example 216, 1-[4-(allyloxy)benzyl]-N-{[4-(but-2-ynyloxy)phenyl]sulfonyl}-D-tryptophan] yielded an IC50 of 540 nM.

Same assay, conditions: read-out: TACE Inhibition (%)

Going from CC#CCOc1ccc(S(=O)(=O)N[C@@H](Cc2c(C)n(Cc3ccc(C(F)(F)F)cc3)c3ccc(Cl)cc23)C(=O)O)cc1 [Example 93, N-{[4-(but-2-ynyloxy)phenyl]sulfonyl}-5-chloro-2-methyl-1-[4-(trifluoromethyl)benzyl]tryptophan] to CC#CCOc1ccc(S(=O)(=O)N[C@@H](Cc2c(C)n(Cc3ccc(Cl)cc3)c3ccc(Cl)cc23)C(=O)O)cc1 [Example 96, N-{[4-(but-2-ynyloxy)phenyl]sulfonyl}-5-chloro-1-(4-chlorobenzyl)-2-methyltryptophan], the inhibition at 1 µM rises from 53.8% to 56.5%.

First: CC#CCOc1ccc(S(=O)(=O)N[C@@H](Cc2cn(CC(C)C)c3ccc(Cl)cc23)C(=O)O)cc1 [Example 85, N-{[4-(but-2-ynyloxy)phenyl]sulfonyl}-5-chloro-1-isobutyltryptophan]
Second: CC#CCOc1ccc(S(=O)(=O)N[C@@H](Cc2cn(CC(C)C)c3ccc(C#N)cc23)C(=O)O)cc1 [Example 143, N-{[4-(but-2-ynyloxy)phenyl]sulfonyl}-5-cyano-1-isobutyltryptophan]
The inhibition at 1 µM of the first is higher: 32.9% for the first, 32.4% for the second.

First: CC#CCOc1ccc(S(=O)(=O)N[C@@H](Cc2cn(Cc3ccc(OC)cc3)c3ccc(OC)cc23)C(=O)O)cc1 [Example 53, N-{[4-(but-2-ynyloxy)phenyl]sulfonyl}-5-methoxy-1-(4-methoxybenzyl)tryptophan]
Second: CC#CCOc1ccc(S(=O)(=O)N[C@@H](Cc2cn(Cc3ccccc3C)c3ccc(OC)cc23)C(=O)O)cc1 [Example 49, N-{[4-(but-2-ynyloxy)phenyl]sulfonyl}-5-methoxy-1-(2-methylbenzyl)tryptophan]
The inhibition at 1 µM of the first is lower: 30.6% for the first, 38.9% for the second.

Compared with CC#CCOc1ccc(S(=O)(=O)N[C@@H](Cc2cn(Cc3ccccc3C#N)c3ccc(OC)cc23)C(=O)O)cc1 [Example 64, N-{[4-(but-2-ynyloxy)phenyl]sulfonyl}-1-(2-cyanobenzyl)-5-methoxytryptophan], CC#CCOc1ccc(S(=O)(=O)N[C@@H](Cc2cn(Cc3ccccc3C(F)(F)F)c3ccc(OC)cc23)C(=O)O)cc1 [Example 55, N-{[4-(but-2-ynyloxy)phenyl]sulfonyl}-5-methoxy-1-[2-(trifluoromethyl)benzyl]tryptophan] is lower in inhibition at 1 µM: 40.9% for the first, 31.3% for the second.

Going from CC#CCOc1ccc(S(=O)(=O)N[C@@H](Cc2cn(Cc3ccccc3C)c3ccc(C(=O)O)cc23)C(=O)O)cc1 [Example 104, N-{[4-(but-2-ynyloxy)phenyl]sulfonyl}-5-carboxy-1-(2-methylbenzyl)tryptophan] to CC#CCOc1ccc(S(=O)(=O)N[C@@H](Cc2cn(Cc3ccccc3)c3ccc(C(=O)O)cc23)C(=O)O)cc1 [Example 103, 1-benzyl-N-{[4-(but-2-ynyloxy)phenyl]sulfonyl}-5-carboxytryptophan], the inhibition at 1 µM rises from 5.79% to 6.16%.

Going from CC#CCOc1ccc(S(=O)(=O)N[C@@H](Cc2c(C)n(Cc3ccccc3C)c3ccccc23)C(=O)O)cc1 [Example 145, N-{[4-(but-2-ynyloxy)phenyl]sulfonyl}-2-methyl-1-(2-methylbenzyl)tryptophan] to CC#CCOc1ccc(S(=O)(=O)N[C@@H](Cc2c(C)n(Cc3ccc(OC(F)(F)F)cc3)c3ccccc23)C(=O)O)cc1 [Example 151, N-{[4-(but-2-ynyloxy)phenyl]sulfonyl}-2-methyl-1-[4-(trifluoromethoxy)benzyl]tryptophan], the inhibition at 1 µM falls from 49.5% to 24.3%.

Going from CC#CCOc1ccc(S(=O)(=O)N[C@@H](Cc2cn(Cc3ccccc3F)c3ccc(Cl)cc23)C(=O)O)cc1 [Example 79, N-{[4-(but-2-ynyloxy)phenyl]sulfonyl}-5-chloro-1-(2-fluorobenzyl)tryptophan] to CC#CCOc1ccc(S(=O)(=O)N[C@@H](Cc2cn(Cc3ccccc3OC)c3ccc(Cl)cc23)C(=O)O)cc1 [Example 74, N-{[4-(but-2-ynyloxy)phenyl]sulfonyl}-5-chloro-1-(2-methoxybenzyl)tryptophan], the inhibition at 1 µM rises from 8.27% to 15%.

First: CC#CCOc1ccc(S(=O)(=O)N[C@@H](Cc2c(C)n(Cc3ccc(C(=O)O)cc3)c3ccc(OC)cc23)C(=O)O)cc1 [Example 207, N-{[4-(but-2-ynyloxy)phenyl]sulfonyl}-1-(4-carboxybenzyl)-5-methoxy-2-methyltryptophan]
Second: CC#CCOc1ccc(S(=O)(=O)N[C@@H](Cc2c(C)n(Cc3ccc(C(C)C)cc3)c3ccc(OC)cc23)C(=O)O)cc1 [Example 202, N-{[4-(but-2-ynyloxy)phenyl]sulfonyl}-1-(4-isopropylbenzyl)-5-methoxy-2-methyltryptophan]
The inhibition at 1 µM of the first is lower: 62.1% for the first, 67% for the second.

First: CC#CCOc1ccc(S(=O)(=O)N[C@@H](Cc2c(C)n(Cc3cc(F)cc(F)c3)c3ccc(OC)cc23)C(=O)O)cc1 [Example 200, N-{[4-(but-2-ynyloxy)phenyl]sulfonyl}-1-(3,5-difluorobenzyl)-5-methoxy-2-methyltryptophan]
Second: CC#CCOc1ccc(S(=O)(=O)N[C@@H](Cc2cn(Cc3cc(F)cc(F)c3)c3ccc(OC)cc23)C(=O)O)cc1 [Example 61, N-{[4-(but-2-ynyloxy)phenyl]sulfonyl}-1-(3,5-difluorobenzyl)-5-methoxytryptophan]
The inhibition at 1 µM of the first is higher: 80.5% for the first, 39.5% for the second.

First: CC#CCOc1ccc(S(=O)(=O)N[C@@H](Cc2cn(Cc3ccc4c(c3)OCO4)c3ccc(Cl)cc23)C(=O)O)cc1 [Example 83, 1-(1,3-benzodioxol-5-ylmethyl)-N-{[4-(but-2-ynyloxy)phenyl]sulfonyl}-5-chlorotryptophan]
Second: CC#CCOc1ccc(S(=O)(=O)N[C@@H](Cc2cn(Cc3cccc(F)c3)c3ccc(Cl)cc23)C(=O)O)cc1 [Example 80, N-{[4-(but-2-ynyloxy)phenyl]sulfonyl}-5-chloro-1-(3-fluorobenzyl)tryptophan]
The inhibition at 1 µM of the first is higher: 31.1% for the first, 27.1% for the second.

Going from CC#CCOc1ccc(S(=O)(=O)N[C@@H](Cc2c[nH]c3ccc(Cl)cc23)C(=O)O)cc1 [Example 133, N-{[4-(but-2-ynyloxy)phenyl]sulfonyl}-5-chlorotryptophan] to CC#CCOc1ccc(S(=O)(=O)N[C@@H](Cc2cn(CC3CCC3)c3ccc(Cl)cc23)C(=O)O)cc1 [Example 86, N-{[4-(but-2-ynyloxy)phenyl]sulfonyl}-5-chloro-1-(cyclobutylmethyl)tryptophan], the inhibition at 1 µM falls from 73.9% to 15.7%.

First: CC#CCOc1ccc(S(=O)(=O)N[C@@H](Cc2c(C)[nH]c3ccccc23)C(=O)O)cc1 [Example 134, N-{[4-(but-2-ynyloxy)phenyl]sulfonyl}-2-methyltryptophan]
Second: CC#CCOc1ccc(S(=O)(=O)N[C@@H](Cc2c(C)n(CC)c3ccc(OC)cc23)C(=O)O)cc1 [Example 209, N-{[4-(but-2-ynyloxy)phenyl]sulfonyl}-1-ethyl-5-methoxy-2-methyltryptophan]
The inhibition at 1 µM of the first is lower: 64.2% for the first, 69.8% for the second.

First: CC#CCOc1ccc(S(=O)(=O)N[C@@H](Cc2cn(CC3CCCCC3)c3ccc(C(=O)O)cc23)C(=O)O)cc1 [Example 132, N-{[4-(but-2-ynyloxy)phenyl]sulfonyl}-5-carboxy-1-(cyclohexylmethyl)tryptophan]
Second: CC#CCOc1ccc(S(=O)(=O)N[C@@H](Cc2cn(CC3CCC3)c3ccc(C(=O)O)cc23)C(=O)O)cc1 [Example 131, N-{[4-(but-2-ynyloxy)phenyl]sulfonyl}-5-carboxy-1-(cyclobutylmethyl)tryptophan]
The inhibition at 1 µM of the first is higher: 9.55% for the first, -1.21% for the second.

Going from CC#CCOc1ccc(S(=O)(=O)N[C@@H](Cc2cn(Cc3ccc(C(C)C)cc3)c3ccc(C#N)cc23)C(=O)O)cc1 [Example 142, N-{[4-(but-2-ynyloxy)phenyl]sulfonyl}-5-cyano-1-(4-isopropylbenzyl)tryptophan] to CC#CCOc1ccc(S(=O)(=O)N[C@@H](Cc2c(C)n(CCCCC)c3ccc(OC)cc23)C(=O)O)cc1 [Example 211, N-{[4-(but-2-ynyloxy)phenyl]sulfonyl}-5-methoxy-2-methyl-1-pentyltryptophan], the inhibition at 1 µM rises from 8.34% to 72.2%.
